Counter-ions that a name gives are not always drawn.
The compounds below were run against αvβ1 integrin (αvβ1 expressing CHO cells) (Homo sapiens (Human), UniProt P05556+P06756) (assay: Cell adhesion assay: inhibition of αvβ1 expressing CHO cells attaching to TGFβ1LAP). Conditions: 1 h at 37° C., crystal violet absorbance 595 nm, read-out: αvβ1 Inhibition IC50 (nM)-range.
Type: cell-based
Method: Example B1—Cell Adhesion Assay
In order to determine the potency, the compounds were assessed for their ability to inhibit αvβ1 expressing CHO cells attach to TGFβ1LAP. Microplates were coated overnight with 2 ug/ml TGFβ1LAP at 4° C., and blocked with 2% BSA/PBS for 30 min before the assay. Cells were detached and washed in PBS. After that the cells were resuspended in DMEM at 1.0×10^6 cells/ml, fifty microliter of cell suspension and fifty microliter of compound solution were added into the plate. The plates were incubated for one hour at 37° C. in humidified 5% carbon dioxide. Non-adherent cells were removed by centrifugation top side down at 58 g for 5 min. The attached cells were fixed and stained with 0.5% crystal violet (in 20% methanol and 1% formaldehyde) and the wells washed with PBS. Crystal violet was dissolved in 2% Triton-X in PBS. The relative number of cells in each well was evaluated by the absorbance at 595 nm in a microplate reader (Tecan). IC50 values were determined by non-linear regression with four parameters (Graphpad Prism 7.01, Y=Bottom+(Top−Bottom)/(1+10^((Log IC50−X)*HillSlope)).
The compounds tested were compound samples prepared according to procedures described in the Synthetic Examples section, with the stereochemical purity as indicated in the Examples indicated for Example or Compound No. 1-62. The compounds tested were predominantly S-configuration at the alpha carbon of the amino acid scaffold, except for compounds 123, 124, and 125 which were predominantly R-configuration at the alpha carbon of the amino acid scaffold. “Example or Compound No.” in Table B-1 refers to the compound illustrated in the examples for Example or Compound Nos. 1-62 (the compounds of Examples 1-62 are labeled as Compounds 1-62 in Table 1). “Example or Compound No.” in Table B-1 refers to the compound number as indicated in Table 1 or Table 2 for Example or Compound Nos. 63-126.

Sequence of αvβ1 integrin (αvβ1 expressing CHO cells) (P06756 31-889): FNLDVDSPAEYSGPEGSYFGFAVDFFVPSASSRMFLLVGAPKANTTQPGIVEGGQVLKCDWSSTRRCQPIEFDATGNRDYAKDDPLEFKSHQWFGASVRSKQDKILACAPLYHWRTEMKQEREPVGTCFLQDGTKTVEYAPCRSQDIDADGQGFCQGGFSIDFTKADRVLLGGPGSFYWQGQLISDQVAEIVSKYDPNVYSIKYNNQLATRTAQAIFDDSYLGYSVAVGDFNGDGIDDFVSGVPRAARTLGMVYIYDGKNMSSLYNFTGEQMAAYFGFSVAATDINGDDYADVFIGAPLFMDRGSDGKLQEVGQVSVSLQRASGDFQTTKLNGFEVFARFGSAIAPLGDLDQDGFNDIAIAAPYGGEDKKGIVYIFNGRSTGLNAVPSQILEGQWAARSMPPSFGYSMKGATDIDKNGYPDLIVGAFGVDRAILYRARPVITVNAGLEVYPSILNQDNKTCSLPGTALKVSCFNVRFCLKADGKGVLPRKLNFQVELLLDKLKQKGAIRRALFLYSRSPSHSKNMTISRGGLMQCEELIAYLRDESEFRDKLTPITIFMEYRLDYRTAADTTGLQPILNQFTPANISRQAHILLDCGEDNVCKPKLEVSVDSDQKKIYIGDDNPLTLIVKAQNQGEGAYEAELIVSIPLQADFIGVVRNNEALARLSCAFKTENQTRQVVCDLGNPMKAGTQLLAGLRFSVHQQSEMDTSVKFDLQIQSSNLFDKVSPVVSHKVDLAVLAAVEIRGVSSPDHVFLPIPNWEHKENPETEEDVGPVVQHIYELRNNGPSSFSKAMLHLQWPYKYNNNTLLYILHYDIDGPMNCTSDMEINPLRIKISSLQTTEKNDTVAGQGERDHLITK
Sequence of αvβ1 integrin (αvβ1 expressing CHO cells) (P06756 891-1048 partner): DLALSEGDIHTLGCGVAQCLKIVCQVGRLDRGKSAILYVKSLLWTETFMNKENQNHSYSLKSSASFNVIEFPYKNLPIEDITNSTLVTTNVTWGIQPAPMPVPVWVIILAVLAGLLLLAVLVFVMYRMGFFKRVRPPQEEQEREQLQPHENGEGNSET
Sequence of αvβ1 integrin (αvβ1 expressing CHO cells) (P05556 21-798): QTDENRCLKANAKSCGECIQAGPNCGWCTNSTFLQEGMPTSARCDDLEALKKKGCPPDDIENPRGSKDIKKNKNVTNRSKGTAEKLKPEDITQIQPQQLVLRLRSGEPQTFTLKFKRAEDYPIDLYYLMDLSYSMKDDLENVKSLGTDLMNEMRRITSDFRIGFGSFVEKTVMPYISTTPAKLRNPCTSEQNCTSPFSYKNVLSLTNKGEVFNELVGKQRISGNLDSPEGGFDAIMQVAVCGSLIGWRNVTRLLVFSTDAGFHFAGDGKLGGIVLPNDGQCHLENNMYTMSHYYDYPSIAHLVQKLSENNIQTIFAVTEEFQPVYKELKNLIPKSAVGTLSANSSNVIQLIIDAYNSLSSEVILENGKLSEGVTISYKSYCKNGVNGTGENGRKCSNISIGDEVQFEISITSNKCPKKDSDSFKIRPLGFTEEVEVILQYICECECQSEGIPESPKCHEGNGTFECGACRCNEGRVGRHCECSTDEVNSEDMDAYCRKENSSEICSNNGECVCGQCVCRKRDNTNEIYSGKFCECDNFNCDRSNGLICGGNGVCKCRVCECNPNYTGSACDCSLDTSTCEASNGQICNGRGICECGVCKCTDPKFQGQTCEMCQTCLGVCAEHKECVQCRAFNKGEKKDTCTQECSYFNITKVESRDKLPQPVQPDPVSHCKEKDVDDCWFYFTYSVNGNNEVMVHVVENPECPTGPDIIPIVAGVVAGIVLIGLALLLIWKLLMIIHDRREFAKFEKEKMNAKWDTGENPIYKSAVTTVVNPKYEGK

Row | SMILES | IC50
1 | O=C(N[C@@H](CCCCCCCc1ccc2c(n1)NCCC2)C(=O)O)c1ccc2c(cnn2C(F)F)c1 [Compound 107] | 250 to 1000 nM
2 | O=C(N[C@@H](CCCCCCCc1ccc2c(n1)NCCC2)C(=O)O)c1ccc2cnn(C(F)F)c2c1 [Compound 105] | 250 to 1000 nM
3 | Cn1ncc2ccc(C(=O)N[C@@H](CCCCCCCc3ccc4c(n3)NCCC4)C(=O)O)cc21 [Compound 102] | 50 to 250 nM
4 | O=C(N[C@@H](CCCCCCCc1ccc2c(n1)NCCC2)C(=O)O)c1ccc(-c2ccncc2)cc1 [Compound 112] | 50 to 250 nM
5 | O=C(N[C@@H](CCCCCCCc1ccc2c(n1)NCCC2)C(=O)O)c1cccc2[nH]ncc12 [Compound 116] | < 50 nM
6 | O=C(N[C@@H](Cc1ccc(OCCCCNC2=NCCCO2)cc1)C(=O)O)c1c(Cl)cccc1Cl [Example 59, (S)-2-(2,6-dichlorobenzamido)-3-(4-(4-((5,6-dihydro-4H-1,3-oxazin-2-yl)amino)butoxy)phenyl)propanoic acid] | > 1000 nM

The remaining lines, values ahead:

Row | IC50 | SMILES
7 | 250 to 1000 nM | O=C(N[C@@H](Cc1ccc(COCCCNc2ccccn2)cc1)C(=O)O)c1c(Cl)cccc1Cl [Example 30, (S)-2-(2,6-dichlorobenzamido)-3-(4-((3-(pyridin-2-ylamino)propoxy)methyl)phenyl) propanoic acid trifluoroacetate]
8 | < 50 nM | O=C(N[C@@H](Cc1ccc(OCCCc2ccc3c(n2)NCCC3)cc1)C(=O)O)c1cc(F)ccc1Cl [Example 36, (2S)-2-[(2-chloro-5-fluoro-benzoyl)amino]-3-[4-[3-(5,6,7,8-tetrahydro-1,8-naphthyridin-2-yl)propoxy]phenyl]propanoic acid]
9 | > 1000 nM | O=C(N[C@@H](Cc1ccc(N2CC(Cc3ccc4c(n3)NCCC4)C2)cc1)C(=O)O)c1c(Cl)cccc1Cl [Example 21, (S)-2-(2,6-dichlorobenzamido)-3-(4-(3-((5,6,7,8-tetrahydro-1,8-naphthyridin-2-yl)methyl)azetidin-1-yl)phenyl)propanoic acid]
10 | < 50 nM | O=C(N[C@@H](Cc1ccc(N2CC(c3ccc4c(n3)NCCC4)C2)cc1)C(=O)O)c1c(Cl)cccc1Cl [Example 22, (S)-2-(2,6-dichlorobenzamido)-3-(4-(3-(5,6,7,8-tetrahydro-1,8-naphthyridin-2-yl)azetidin-1-yl)phenyl)propanoic acid]
11 | > 1000 nM | CC(C)(CCNc1ccccn1)Nc1ccc(C[C@H](NC(=O)c2c(Cl)cccc2Cl)C(=O)O)cc1 [Example 26, (S)-2-(2,6-dichlorobenzamido)-3-(4-((2-methyl-4-(pyridin-2-ylamino)butan-2-yl)amino)phenyl)propanoic acid]
12 | < 50 nM | O=C(N[C@@H](Cc1ccc(OCCCC2CCc3cccnc3N2)cc1)C(=O)O)c1c(Cl)cccc1Cl (stereo partly drawn) [Example 27, (2S)-2-(2,6-dichlorobenzamido)-3-(4-(3-(1,2,3,4-tetrahydro-1,8-naphthyridin-2-yl)propoxy)phenyl)propanoic acid]
13 | < 50 nM | N#Cc1cc(Cl)c(C(=O)N[C@@H](Cc2ccc(OCCCc3ccc4c(n3)NCCC4)cc2)C(=O)O)c(Cl)c1 [Example 5, (S)-2-(2,6-dichloro-4-cyanobenzamido)-3-(4-(3-(5,6,7,8-tetrahydro-1,8-naphthyridin-2-yl)propoxy)phenyl)propanoic acid]
14 | < 50 nM | O=C(N[C@@H](Cc1ccc(OCCCc2ccc3c(n2)NCCC3)cc1)C(=O)O)c1c(Cl)cccc1Cl [Example 16, (S)-2-(2,6-dichlorobenzamido)-3-(4-(3-(5,6,7,8-tetrahydro-1,8-naphthyridin-2-yl)propoxy)phenyl)propanoic acid]
15 | > 1000 nM | O=C(N[C@@H](Cc1ccc(O[C@H]2CC[C@H](Nc3ccccn3)CC2)cc1)C(=O)O)c1c(Cl)cccc1Cl [Example 39, (2S)-2-[(2,6-dichlorobenzoyl)amino]-3-[4-[4-trans-(2-pyridylamino)cyclohexoxy]phenyl]propanoic acid]
16 | 250 to 1000 nM | O=C(NC(CN1CC(OCCCc2ccc3c(n2)NCCC3)C1)C(=O)O)c1c(Cl)cccc1Cl (racemic) [Example 28, (+/−)-2-(2,6-dichlorobenzamido)-3-(3-(3-(5,6,7,8-tetrahydro-1,8-naphthyridin-2-yl)propoxy)azetidin-1-yl)propanoic acid]
17 | > 1000 nM | CN1CC(NCCCCCCCC[C@H](NC(=O)c2c(Cl)cccc2Cl)C(=O)O)=NCC1=O [Example 52, (S)-2-(2,6-dichlorobenzamido)-10-((4-methyl-5-oxo-3,4,5,6-tetrahydropyrazin-2-yl)amino)decanoic acid]
18 | < 50 nM | O=C(N[C@@H](C/C=C/CCCCc1ccc2c(n1)NCCC2)C(=O)O)c1c(Cl)cccc1Cl [Example 20, (S,E)-2-(2,6-dichlorobenzamido)-9-(5,6,7,8-tetrahydro-1,8-naphthyridin-2-yl)non-4-enoic acid]

Each compound was assayed against recombinant human integrin αvβ1 (Homo sapiens (Human), UniProt P05556+P06756) (assay: Solid phase integrin αvβ1 binding assay (fibronectin)). Conditions: recombinant human integrin αvβ1 coated plate, recombinant fibronectin 2 ug/ml, 2 hours at 25° C., read-out: αvβ1 Inhibition IC50 (nM)-range.
Sequence of recombinant human integrin αvβ1 (P06756 31-889): as the sequence (P06756 31-889) above
Sequence of recombinant human integrin αvβ1 (P06756 891-992 partner): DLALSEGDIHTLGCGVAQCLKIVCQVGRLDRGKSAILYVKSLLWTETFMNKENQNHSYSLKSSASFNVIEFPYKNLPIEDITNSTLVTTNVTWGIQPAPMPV
Sequence of recombinant human integrin αvβ1 (P05556 21-728): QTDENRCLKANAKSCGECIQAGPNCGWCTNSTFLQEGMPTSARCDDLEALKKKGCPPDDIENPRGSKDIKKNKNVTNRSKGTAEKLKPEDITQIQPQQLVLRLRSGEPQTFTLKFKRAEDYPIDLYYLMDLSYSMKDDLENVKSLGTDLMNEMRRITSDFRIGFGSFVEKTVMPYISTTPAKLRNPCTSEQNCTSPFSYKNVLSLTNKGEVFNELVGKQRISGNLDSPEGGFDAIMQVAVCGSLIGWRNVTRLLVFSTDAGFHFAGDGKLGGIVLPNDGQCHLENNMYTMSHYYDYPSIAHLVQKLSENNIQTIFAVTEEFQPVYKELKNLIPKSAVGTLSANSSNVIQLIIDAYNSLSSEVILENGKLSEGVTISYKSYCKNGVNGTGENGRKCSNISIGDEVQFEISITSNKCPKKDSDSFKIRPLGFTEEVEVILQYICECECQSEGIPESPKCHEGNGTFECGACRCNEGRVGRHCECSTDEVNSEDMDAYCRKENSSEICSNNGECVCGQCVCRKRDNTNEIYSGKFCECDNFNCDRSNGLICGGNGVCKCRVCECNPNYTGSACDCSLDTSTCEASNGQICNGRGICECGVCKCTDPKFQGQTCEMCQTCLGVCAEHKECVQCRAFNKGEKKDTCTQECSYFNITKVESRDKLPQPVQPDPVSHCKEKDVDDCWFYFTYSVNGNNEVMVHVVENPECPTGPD
Method: Example B2—Solid Phase Integrin αvβ1 Binding Assay
Microplates were coated with recombinant human integrin αvβ1 (2 ug/ml) in PBS (100 ul/well 4° C., overnight). The coating solution was removed, washed with PBS. Plate was blocked with 200 ul/well of Block Buffer (2% BSA in PBS) at 37° C. for 1 h. Dilutions of testing compounds and recombinant fibronectin (2 ug/ml) in binding and washing buffer (50 mM Tris-HCl, ph7.5; 0.1% BSA, 1 mM MnCl2; NaCl 150 mM; 0.02% Tween-20; 1 mM CaCl2); 1 mM MgCl2) were added. The plate was incubated for 2 hours at 25° C., washed, and incubated for 1 hour with Biotin-Anti-fibronectin. Bound antibody was detected by peroxidase-conjugated streptavidin. The IC50 values for testing compounds were calculated by a four-parameter logistic regression.
The compounds tested were compound samples prepared according to procedures described in the Synthetic Examples section, with the stereochemical purity as indicated in the Examples. The compounds tested were predominantly S-configuration at the alpha carbon of the amino acid scaffold, except for compounds 123, 124, and 125 which were predominantly R-configuration at the alpha carbon of the amino acid scaffold.

Row | SMILES | IC50
19 | O=C(N[C@@H](CCCCCCCc1ccc2c(n1)NCCC2)C(=O)O)c1cccc(F)c1Cl [Compound 121] | < 50 nM
20 | O=C(NC(CCCCCCCc1ccc2c(n1)NCCC2)C(=O)O)c1cccc(Cl)c1 (stereo not shown) [Compound 91] | < 50 nM
21 | O=C(NC(CCCCCCCc1ccc2c(n1)NCCC2)C(=O)O)c1ccc(Cl)cc1 (stereo not shown) [Compound 87] | < 50 nM
22 | CC(C)Oc1ccc(C(=O)N[C@@H](CCCCCCCc2ccc3c(n2)NCCC3)C(=O)O)c(Cl)c1 [Compound 117] | < 50 nM
23 | O=C(O)C(CCCCCCCc1ccc2c(n1)NCCC2)NC(=O)N1CCn2c(nnc2C(F)(F)F)C1 (stereo not shown) [Compound 97] | < 50 nM
24 | COc1cccc(C(=O)NC(CCCCCCCc2ccc3c(n2)NCCC3)C(=O)O)c1 (stereo not shown) [Compound 93] | < 50 nM
25 | N#Cc1cccc(C(=O)NC(CCCCCCCc2ccc3c(n2)NCCC3)C(=O)O)c1 (stereo not shown) [Compound 94] | < 50 nM
26 | O=C(NC(CCCCCCCc1ccc2c(n1)NCCC2)C(=O)O)c1ccccc1F (stereo not shown) [Compound 95] | < 50 nM
27 | O=C(NC(CCCCCCCc1ccc2c(n1)NCCC2)C(=O)O)c1ccccc1Cl (stereo not shown) [Compound 96] | < 50 nM
28 | O=C(NC(CCCCCCCc1ccc2c(n1)NCCC2)C(=O)O)c1cccc(F)c1 (stereo not shown) [Compound 92] | < 50 nM
29 | O=C(N[C@@H](CCCCCCCc1ccc2c(n1)NCCC2)C(=O)O)c1cc(OC(F)(F)F)ccc1Cl [Compound 118] | < 50 nM
30 | N#Cc1ccc(C(=O)NC(CCCCCCCc2ccc3c(n2)NCCC3)C(=O)O)cc1 (stereo not shown) [Compound 90] | < 50 nM
31 | O=C(NC(CCCCCCCc1ccc2c(n1)NCCC2)C(=O)O)c1c(Cl)cccc1Cl (stereo not shown) [Compound 65, 2-(2,6-dichlorobenzamido)-9-(5,6,7,8-tetrahydro-1,8-naphthyridin-2-yl)nonanoic acid] | < 50 nM
32 | COc1ccc(C(=O)NC(CCCCCCCc2ccc3c(n2)NCCC3)C(=O)O)cc1 (stereo not shown) [Compound 89] | < 50 nM
33 | Cc1cc(C)n(-c2cccc(C(=O)N[C@@H](CCCCCCCc3ccc4c(n3)NCCC4)C(=O)O)c2)n1 [Compound 119] | < 50 nM

The next lines start with the values.

Row | IC50 | SMILES
34 | > 1000 nM | O=C(N[C@H](CCCCCCCc1ccc2c(n1)NCCC2)C(=O)O)c1cccc(-c2cncs2)c1 [Compound 124]
35 | < 50 nM | O=C(N[C@@H](CCCCCCCc1ccc2c(n1)NCCC2)C(=O)O)c1cc(F)cc(C(F)(F)F)c1 [Compound 122]
36 | > 1000 nM | O=C(N[C@H](CCCCCCCc1ccc2c(n1)NCCC2)C(=O)O)c1cc(F)cc(C(F)(F)F)c1 [Compound 125]
37 | > 1000 nM | Cn1cc(-c2cccc(C(=O)N[C@H](CCCCCCCc3ccc4c(n3)NCCC4)C(=O)O)c2)cn1 [Compound 123]
